Test [1] addresses T1, human dopamine receptor D2 (DRD2) (Homo sapiens, UniProt P14416).
T1 construct: expressed in transfected cells; host or cells: HEK293T (pcDNA3 vectors)
The experiment in a line: Dopamine receptor D2 inhibition assay (SRE-luciferase reporter in HEK293T cells). The test is classed as cell-based. The note with it: for inhibition of DRD2 signaling: 10 μM for 3 hours.
Text: (§1) The human dopamine receptor D2 (DRD2) and modified murine Gq5i cDNAs were inserted into pcDNA3 expression vectors. After verifying the PCR products by DNA sequencing, DRD2, Gq5i and the PathDetect pSRE-Luc Cis-Reporter Plasmid (#219080, Agilent Technologies) were transfected to HEK293T cells. As previously reported, Gq5i enables Gi/o-coupled receptor activity to be detected using a serum response element (SRE)-luciferase reporter gene (See, Conklin et al., Nature 363(6426):274-6 (1993); Al-Fulaij et al., J. Pharmacol. Exp. Ther. 321(1):298-307 (2007)). These cells were starved in FCS-free DMEM medium for six hours before incubating them with 2 μM dopamine hydrochloride (Sigma Aldrich) together with each of the compound at 0, 0.5, 1, 2 and 4 μM for three hours. The reporter activity was measured using Pierce™ Firefly Luciferase Glow Assay Kit (Thermo Fisher Scientific).
(§2) For IC50 calculation, KOPT-K1 cells were treated with each of the compounds at various concentrations for 72 hours, followed by the determination of viable cell numbers with PrestoBlue® cell viability reagent. For the PP2A phosphatase activity assay, KOPT-K1 cells were treated with each of the compounds at 10 μM for 3 hours before phosphatase activity was measured. Dopamine D2 receptor activity was monitored in HEK293T cells coexpressing the dopamine D2 receptor, modified G protein and SRE luciferase reporter. Cells were treated with each of the compound at 10 μM for 3 hours, then lysed for the luciferase reporter assay.
as §1, with “D2” for “D2 (DRD2)”, “363(6426):274-276” for “363(6426):274-6”, “0.5” for “0, 0.5, 1, 2 and 4”
Background: In a reporter assay the amount or activity of a reporter protein is the signal.

For test [2], the target named is T2, PP2A (Homo sapiens, UniProt P30153+P67775+Q16537).
T2 construct: are endogenously expressed by KOPTK1 cells; endogenous in cells; host or cells: KOPT-K1 T-ALL cells / lysates
T2 sequence (P30153 2-589): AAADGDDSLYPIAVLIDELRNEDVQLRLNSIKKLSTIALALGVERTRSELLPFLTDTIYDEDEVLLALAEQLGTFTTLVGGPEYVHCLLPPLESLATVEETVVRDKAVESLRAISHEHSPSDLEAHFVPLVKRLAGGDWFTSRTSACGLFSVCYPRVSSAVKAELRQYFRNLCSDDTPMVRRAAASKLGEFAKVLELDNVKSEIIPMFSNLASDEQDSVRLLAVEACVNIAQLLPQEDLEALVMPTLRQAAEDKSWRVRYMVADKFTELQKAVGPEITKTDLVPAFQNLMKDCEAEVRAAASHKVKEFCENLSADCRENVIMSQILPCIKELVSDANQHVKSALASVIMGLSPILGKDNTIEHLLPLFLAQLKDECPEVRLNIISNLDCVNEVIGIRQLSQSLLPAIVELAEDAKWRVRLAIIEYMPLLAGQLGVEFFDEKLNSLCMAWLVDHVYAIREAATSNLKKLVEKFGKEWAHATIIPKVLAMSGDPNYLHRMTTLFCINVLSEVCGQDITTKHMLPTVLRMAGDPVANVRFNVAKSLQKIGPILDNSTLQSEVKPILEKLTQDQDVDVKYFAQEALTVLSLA
T2 sequence (P67775 whole entry): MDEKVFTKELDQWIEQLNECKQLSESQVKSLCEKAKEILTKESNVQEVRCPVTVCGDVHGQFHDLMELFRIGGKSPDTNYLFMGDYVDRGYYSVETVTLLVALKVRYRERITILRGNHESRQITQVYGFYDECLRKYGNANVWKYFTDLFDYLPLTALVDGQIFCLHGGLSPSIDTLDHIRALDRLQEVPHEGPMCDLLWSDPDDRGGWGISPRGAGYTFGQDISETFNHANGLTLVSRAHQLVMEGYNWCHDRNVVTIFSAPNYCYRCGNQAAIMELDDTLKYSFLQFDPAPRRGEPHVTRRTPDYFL
T2 sequence (Q16537 2-467): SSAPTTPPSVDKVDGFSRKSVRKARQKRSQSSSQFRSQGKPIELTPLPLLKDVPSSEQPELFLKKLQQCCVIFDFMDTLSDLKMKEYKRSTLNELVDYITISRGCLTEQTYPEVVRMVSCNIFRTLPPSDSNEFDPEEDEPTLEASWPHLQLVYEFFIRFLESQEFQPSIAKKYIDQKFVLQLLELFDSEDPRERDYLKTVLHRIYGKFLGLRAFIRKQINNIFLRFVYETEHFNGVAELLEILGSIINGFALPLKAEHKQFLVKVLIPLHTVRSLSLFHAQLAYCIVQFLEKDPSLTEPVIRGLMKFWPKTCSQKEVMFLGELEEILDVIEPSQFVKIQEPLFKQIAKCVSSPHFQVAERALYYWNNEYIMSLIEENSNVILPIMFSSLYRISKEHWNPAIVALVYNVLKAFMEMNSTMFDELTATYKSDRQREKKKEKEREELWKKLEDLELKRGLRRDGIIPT
The experiment in a line: PP2A phosphatase activity in treated KOPT-K1 cells. The test is classed as cell-based. The note with it: KOPT-K1, 10 μM for 3 hours. How it is done: (§3) Data are presented as means±s.d. (n=3, biological replicates). KO; knock out. **P<0.01, ***P<0.001 by student's t-test.
as §2
(§4) For IC50 calculations, KOPT-K1 cells were treated with each of the compound at various concentrations for 72 hours, then their viability was examined by PrestoBlue® Cell Viability Reagent (Thermo Fisher Scientific). […] DRD2 activity was monitored in HEK293T cells expressing DRD2, modified G protein and SRE luciferase reporter. Cells were treated with each of the compounds at 10 μM for three hours, then lysed for luciferase reporter assay. […] The biochemical assays were performed as indicated in Examples 7 and 8.

For test [3], the system named is PP2A. In words: PP2A phosphatase activity in treated KOPT-K1 cells. The test is classed as cell-based, human. The note with it: KOPT-K1 cells, 10 μM. How it is done:
as §3, §2, §4

The test system of test [4] is KOPT-K1 cells with PP2A subunit inactivation. The experiment in a line: Drug sensitivity of KOPT-K1 sublines with CRISPR-Cas9 PP2A subunit knockout. The test is classed as cell-based, human. The note with it: SMAP 5 μM, 72 hours. How it is done:
Two gRNAs with different target sequences were designed for each subunit (#1 and #2). Control gRNAs target luciferase gene. […] Data are presented as means±s.d. (n=3-5, biological replicates). ***P<0.001 by Student's t-test (FIG. 3A).
SMAP sensitivity in KOPT-K1 cells was measured after PP2A subunit inactivation. Only each subunit of PP2A was knocked out by CRISPR-Cas9 with unique gRNAs. […] Two gRNAs with different target sequences were designed for each subunit (#1 and #2). Control gRNAs target luciferase gene. Data are presented as means±s.d. (n=3-5, biological replicates). ***P<0.001 by Student's t-test (FIG. 3B).
To identify the subunits of PP2A that are essential for the antitumor activity of iPAP1, CRISPR-Cas9 was used to establish a series of sublines of KOPT-K1 T-ALL cells, each lacking one of the 19 specific PP2A subunits (FIG.1A-FIG. 2), and to examine their sensitivity to iPAP1-induced growth inhibition.
With this panel of PP2A subunit knockout cells in hand, we analyzed the PP2A subunits required for growth suppression by SMAPs, another class of allosteric activators of PP2A (Gutierrez et al., J. Clin. Invest. 124:644-655 (2014); Sangodkar et al., J. Clin. Invest. 127:2081-2090 (2017)). […] Both the PPP2R5E and PPP2R2A regulatory subunits of PP2A were among the most highly expressed in a series of 16 different T-ALL cell lines (FIG. 5A). Thus, the assembly of structurally different heterotrimeric PP2A complexes induced with either iPAP1 or SMAP cannot be attributed to imbalances in cellular expression levels of individual PP2A subunits, but likely stems from differences in the allosteric alterations of the A subunit protein resulting from the binding of these two classes of small molecules, which have different chemical structures.

For test [5], the system named is KOPT-K1 cells. In words: Cell cycle status by PI flow cytometry. The test is classed as cell-based, human. The conditions noted are these: 10 μM and 20 μM, 24 hours. How it is done:
Relative DNA content of cells in each of the samples was determined by measuring PI (propidium iodide) staining using flow cytometry. The results are illustrated in FIG. 31A-FIG. 31B.
Relative DNA content of cells in each of the samples was determined as described above.
For orientation: Flow cytometry measures light scatter and fluorescence of single cells or particles in a stream.

Test [6] deals with KOPT-K1 cells. In words: KOPT-K1 cell viability (PrestoBlue), IC50 after 72 hours. The test is classed as cell-based, human. The conditions noted are these: for IC50: 72 hours, PrestoBlue, read-out: IC50 value against KOPT-K1 cells. How it is done: as §2
For IC50 calculations, KOPT-K1 cells were treated with each of the compound at various concentrations for 72 hours, then their viability was examined by PrestoBlue® Cell Viability Reagent (Thermo Fisher Scientific). For PP2A phosphatase activity assay, KOPT-K1 cells were treated with each of the compound at 10 μM for three hours before the activity of PP2A was quantified using PP2A Immunoprecipitation Phosphatase Assay Kit (Merck Millipore®). DRD2 activity was monitored in HEK293T cells expressing DRD2, modified G protein and SRE luciferase reporter. Cells were treated with each of the compounds at 10 μM for three hours, then lysed for luciferase reporter assay. […] The biochemical assays were performed as indicated in Examples 7 and 8.

Test [7] deals with PP2A subunits. In words: Co-immunoprecipitation of PP2A subunits (holoenzyme assembly). Further details: species or system human. The conditions noted are these: KOPT-K1 cells, 10 μM, 24 hours. From the text:
The biochemical activity of iPAP1 was further characterized by addressing whether it acts exclusively on the three identified subunits to mediate the assembly of PP2A, or whether other proteins expressed by T-ALL cells are also required. Using baculovirus vectors, each subunit of PP2A was first expressed with a C-terminal tag in Hi5 insect cells, and then purified the subunit proteins using columns with antibodies against the tags bound to agarose beads (see, Example 5, FIG. 13-FIG. 14). […] PP2A is a unique enzyme consisting of three subunits and it needs to be properly assembled into a holoenzyme before it mediates phosphatase activity. […] The protein lysates were then immunoprecipitated with anti-PPP2CA antibody or normal IgG as a control, and the precipitates were immunoblotted with antibodies specifically detecting each of the PP2A subunits. […] Nuclear and cytoplasmic fractions were separated using NE-PER™ Nuclear and Cytoplasmic Extraction Kit (Thermo Fisher Scientific), and each of the subunits of PP2A was analyzed by western blot. Histone H3 and α tubulin expression levels were used as loading controls for nuclear and cytoplasmic fractions, respectively. […] Lysates were immunoprecipitated using an anti-PPP2CA antibody, and then blotted with antibodies specific for each PP2A subunit. […] The results of a co-immunoprecipitation assay using an anti-PPP2CA antibody for immunoprecipitation in KOPT-K1 cells treated with SMAP at 10 μM or control DMSO for 24 hours before they were lysed for protein extraction are illustrated in FIG. 9B. Lysates were immunoprecipitated using an anti-PPP2CA antibody, and then blotted with antibodies specific for each PP2A subunit.

The subject of test [8] is KOPT-K1 cells. In words: Microtubule and chromatin staining of cytospins. The test is classed as cell-based, human. The conditions noted are these: 0.001 and 0.0001 μM, 24 hours.
The target in test [9] is tubulin from porcine brain (Sus scrofa, UniProt P02550+P02554). In words: Fluorescence-based tubulin polymerization assay. The note with it: 3 μM.
Chain of tubulin from porcine brain (P02550 whole entry): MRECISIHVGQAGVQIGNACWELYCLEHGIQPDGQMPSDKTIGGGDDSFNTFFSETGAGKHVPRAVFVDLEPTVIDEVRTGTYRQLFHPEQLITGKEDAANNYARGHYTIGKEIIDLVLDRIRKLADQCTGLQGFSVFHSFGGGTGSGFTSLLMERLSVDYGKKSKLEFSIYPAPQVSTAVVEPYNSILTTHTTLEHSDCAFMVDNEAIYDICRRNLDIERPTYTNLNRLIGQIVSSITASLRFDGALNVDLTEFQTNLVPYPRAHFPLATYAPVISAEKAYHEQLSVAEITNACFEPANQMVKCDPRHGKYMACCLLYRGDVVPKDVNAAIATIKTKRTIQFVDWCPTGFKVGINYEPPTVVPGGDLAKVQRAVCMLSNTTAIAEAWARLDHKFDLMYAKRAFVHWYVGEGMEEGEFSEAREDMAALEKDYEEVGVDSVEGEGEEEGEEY
Chain of tubulin from porcine brain (P02554 whole entry): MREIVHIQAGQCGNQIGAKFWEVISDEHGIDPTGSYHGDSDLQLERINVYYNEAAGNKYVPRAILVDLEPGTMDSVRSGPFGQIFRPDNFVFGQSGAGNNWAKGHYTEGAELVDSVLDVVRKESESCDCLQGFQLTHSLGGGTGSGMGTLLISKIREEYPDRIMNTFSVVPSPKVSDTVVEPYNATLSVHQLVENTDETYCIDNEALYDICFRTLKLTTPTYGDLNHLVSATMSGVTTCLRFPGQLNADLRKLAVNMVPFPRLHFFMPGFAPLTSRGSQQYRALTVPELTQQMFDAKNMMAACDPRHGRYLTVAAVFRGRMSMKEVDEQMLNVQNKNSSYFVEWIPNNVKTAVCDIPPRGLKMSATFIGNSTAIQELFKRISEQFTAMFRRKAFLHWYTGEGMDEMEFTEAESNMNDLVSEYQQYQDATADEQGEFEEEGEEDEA
Procedure: Briefly, free tubulin (2 mg/mL) in buffer supplemented with 1 mM GTP and 15% glycerol was employed. Then, the test compounds were added to tubulin solution and changes in the fluorescence intensity (ex=370 nm, em=445 nm) were measured by kinetic reading at 37° C. using SpectraMax® M5 Microplate reader (Molecular Devices LLC).
[10] abbreviates: 0.5 μM for three hours with 2 μM dopamine.

SMILES strings stand for the structures. Like-named read-outs stand apart in the source and are kept apart here.

T1 sequence (P14416 whole entry): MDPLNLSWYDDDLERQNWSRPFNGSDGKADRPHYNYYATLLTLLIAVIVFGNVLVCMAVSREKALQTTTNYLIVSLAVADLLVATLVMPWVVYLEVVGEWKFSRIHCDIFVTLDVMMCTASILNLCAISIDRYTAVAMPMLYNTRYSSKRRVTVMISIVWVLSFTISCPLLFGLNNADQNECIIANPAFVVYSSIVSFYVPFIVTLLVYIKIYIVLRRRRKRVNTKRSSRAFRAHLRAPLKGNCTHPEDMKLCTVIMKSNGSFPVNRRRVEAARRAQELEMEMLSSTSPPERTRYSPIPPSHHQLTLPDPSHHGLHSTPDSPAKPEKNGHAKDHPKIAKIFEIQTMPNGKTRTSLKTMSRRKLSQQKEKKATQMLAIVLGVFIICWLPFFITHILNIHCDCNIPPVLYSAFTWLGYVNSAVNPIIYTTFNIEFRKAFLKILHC

A word on the IC50: it is the concentration needed to halve the response being measured. For the molecule `O=S(=O)(N[C@@H]1CCC[C@H](N2c3ccccc3Oc3ccccc32)[C@H]1O)c1ccc(OC(F)(F)F)cc1` [SMAP, reference compound], the “inhibitory activities on DRD2” value in test [1] (setting [10]) was “did not show inhibitory activities on DRD2”. Further, the “inhibition of DRD2 signaling” value in [1] was “lacked DRD2 inhibitory activity”. For the same molecule, the PP2A activation potential entry in [2] is recorded as “much less potent than iPAP1, iPAP2, iPAP3 or iPAP4 in phosphatase activity”. In addition, the “phosphatase activity of PP2A relative to basal level” value in test [3] is given as “up to twice its basal level”. For the same molecule, in test [4], the “PP2A subunits whose knockout gives resistance” value is on record as “resistant to SMAP treatment only when the PPP2R1A, PPP2CA or PPP2R2A subunit was disrupted”. In addition, the cell cycle status result in test [5] was “arrested in G0/G1 phase”. The IC50 in [6] is about 5 µM. The “PP2A subunits co-immunoprecipitated with anti-PPP2CA antibody” value in test [7] was “trimeric complex nucleated by SMAP contains PPP2CA, PPP2R1A and PPP2R2A”.
Regarding `O=c1[nH]c2ccccc2n1CCCN1CCC(n2c(=O)[nH]c3cc(Cl)ccc32)CC1` [domperidone, reference compound], the “inhibition of DRD2 signaling” value in test [1] is reported as “strong inhibitors”.
By inhibition is commonly meant the change of the read-out against control, counted positive when it falls. A low value points to little suppression. `C=C[C@@]1(C)CC(=O)[C@]2(O)[C@@]3(C)[C@@H](O)CCC(C)(C)[C@@H]3[C@H](O)[C@H](OC(C)=O)[C@@]2(C)O1` [forskolin, reference compound] registered an inhibition at 0.5 µM in test [1] (HEK-293T, 0.5 μM for three hours with 2 μM dopamine) of about 30%.
Regarding `COc1ccc(C(=O)N2c3ccccc3Sc3ccc([N+](=O)[O-])cc32)cc1` [iPAP2], in [6] (Homo sapiens, KOPTK1, 72 h), the IC50 was about 1 µM.
Same read-out and setting: under `COc1ccc(C(=O)N2c3ccccc3Sc3ccc(C#N)cc32)cc1` [iPAP3] stands about 0.3 µM.
Consider `COc1ccc(C(=O)N2c3ccccc3Sc3cc(C#N)ccc32)cc1` [iPAP4], for which the “inhibition of DRD2 signaling” value in [1] is “very low inhibition of DRD2 signaling”. Further, the PP2A activation potential result in [2] was “relatively high PP2A activation potential compared to PPZ”. For the same molecule, the IC50 in test [6] lay in the range of 0.03 to 0.04 µM. The IC50 in test [6] (Homo sapiens, KOPTK1, 72 h) was about 0.03 µM. For the same molecule, in [6] (KOPT-K1, 72 hours), the “IC50 lower than PPZ” value is listed as about 100 fold and the “IC50 lower than iPAP1” value is given as about 10 fold.
Regarding `Cc1ccccc1C(=O)N1c2ccccc2Sc2ccc(Cl)cc21` [iPAP5], the “inhibitory activities on DRD2” value in test [1] (setting [10]) is reported as “did not show inhibitory activities on DRD2”.
For `CCN1CCCC1CNC(=O)c1cc(S(N)(=O)=O)ccc1OC` (stereo not shown) [sulpiride, reference compound], the “inhibition of DRD2 signaling” value in test [1] is “strong inhibitors”.
On to `CC[C@]1(O)C[C@H]2CN(CCc3c([nH]c4ccccc34)[C@@](C(=O)OC)(c3cc4c(cc3OC)N(C=O)[C@H]3[C@@](O)(C(=O)OC)[C@H](OC(C)=O)[C@]5(CC)C=CCN6CC[C@]43[C@@H]65)C2)C1` [vincristine, reference compound], for which the “mitotic and microtubule phenotype” value in [8] is “without detectable microtubules”. Also, the “inhibition of tubulin polymerization” value in [9] is listed as “markedly inhibited tubulin polymerization”.

For the origin of these results see patent US20220062291A1, “COMPOSITIONS AND METHODS OF TREATING CANCERS BY ADMINISTERING A PHENOTHIAZINE-RELATED DRUG THAT ACTIVATES PROTEIN PHOSPHATASE 2A (PP2A) WITH REDUCED INHIBITORY ACTIVITY TARGETED TO THE DOPAMINE D2 RECEPTOR AND ACCOMPANYING TOXICITY” (DANA-FARBER CANCER INSTITUTE, INC., priority 2018, published 2022).
